Experiments:
[1] = target: T1, VEGFR2 (Homo sapiens (Human), UniProt P35968); experiment: VEGFR2 Kinase Assay (enzyme); format: biochemical; details: purified cytoplasmic domain KDR protein, 2.7 μM ATP
Experimental: VEGFR2 Kinase Assay: Biochemical KDR kinase assays were performed in 96 well microtiter plates that were coated overnight with 75 μg/well of poly-Glu-[…]:1) in 10 mM Phosphate Buffered Saline (PBS), pH 7.4. The coated plates were washed with 2 mls per well PBS+0.05% Tween-20 (PBS-T), blocked by incubation with PBS containing 1% BSA, then washed with 2 mls per well PBS-T prior to starting the reaction. Reactions were carried out in 100 μL reaction volumes containing 2.7 μM ATP in kinase buffer (50 mM Hepes buffer pH 7.4, 20 mM MgCl2, 0.1 mM MnCl2 and 0.2 mM Na3VO4). Test compounds were reconstituted in 100% DMSO and added to the reaction to give a final DMSO concentration of 5%. Reactions were initiated by the addition 20 ul per well of kinase buffer containing 200-300 ng purified cytoplasmic domain KDR protein (BPS Bioscience, San Diego, Calif.). Following a 15 minute incubation at 30° C., the reactions were washed 2 mls per well PBS-T. 100 μl of a monoclonal anti-phosphotyrosine antibody-peroxidase conjugate diluted 1:10,000 in PBS-T was added to the wells for 30 minutes. Following a 2 mls per well wash with PBS-Tween-20, 100 μl of 0-Phenylenediamine Dihydrochloride in phosphate-citrate buffer, containing urea hydrogen peroxide, was added to the wells for 7-10 minutes as a colorimetric substrate for the peroxidase. The reaction was terminated by the addition of 100 μl of 2.5N H2SO4 to each well and read using a microplate ELISA reader set at 492 nm. IC50 values for compound inhibition were calculated directly from graphs of optical density (arbitrary units) versus compound concentration following subtraction of blank values.
Target sequence in this assay (P35968 786-1356): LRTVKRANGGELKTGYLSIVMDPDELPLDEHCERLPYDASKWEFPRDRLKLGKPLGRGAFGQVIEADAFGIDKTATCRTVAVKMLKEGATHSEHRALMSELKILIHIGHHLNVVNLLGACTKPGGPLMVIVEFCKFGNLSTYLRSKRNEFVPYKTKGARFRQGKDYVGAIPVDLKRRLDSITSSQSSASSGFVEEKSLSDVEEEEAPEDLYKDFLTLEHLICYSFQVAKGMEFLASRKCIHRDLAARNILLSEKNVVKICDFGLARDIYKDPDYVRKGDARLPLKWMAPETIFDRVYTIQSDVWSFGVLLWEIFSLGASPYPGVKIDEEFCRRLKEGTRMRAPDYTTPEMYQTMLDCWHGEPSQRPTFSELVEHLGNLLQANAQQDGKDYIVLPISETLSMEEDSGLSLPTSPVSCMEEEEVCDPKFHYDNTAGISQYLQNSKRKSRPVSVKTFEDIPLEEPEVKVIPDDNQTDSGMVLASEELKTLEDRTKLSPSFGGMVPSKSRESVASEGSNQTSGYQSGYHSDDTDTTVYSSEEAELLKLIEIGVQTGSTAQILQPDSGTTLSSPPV

[2] = target: T2, PDGFRβ (Homo sapiens (Human), UniProt P09619); experiment: PDGFRβ Kinase Assay (enzyme); format: biochemical; details: purified cytoplasmic domain PDGFR-b protein, 36 μM ATP
Experimental: Biochemical PDGFRβ kinase assays were performed in 96 well microtiter plates that were coated overnight with 75 μg of poly-Glu-Tyr (4:1) in 10 mM Phosphate Buffered Saline (PBS), pH 7.4. The coated plates were washed with 2 mls per well PBS+0.05% Tween-20 (PBS-T), blocked by incubation with PBS containing 1% BSA, then washed with 2 mls per well PBS-T prior to starting the reaction. Reactions were carried out in 100 μL reaction volumes containing 36 μM ATP in kinase buffer (50 mM Hepes buffer pH 7.4, 20 mM MgCl2, 0.1 mM MnCl2 and 0.2 mM Na3VO4). Test compounds were reconstituted in 100% DMSO and added to the reaction to give a final DMSO concentration of 5%. Reactions were initiated by the addition 20 ul per well of kinase buffer containing 200-300 ng purified cytoplasmic domain PDGFR-b protein (Millipore). Following a 60 minute incubation at 30° C., the reactions were washed 2 mls per well PBS-T. 100 μl of a monoclonal anti-phosphotyrosine antibody-peroxidase conjugate diluted 1:10,000 in PBS-T was added to the wells for 30 minutes. Following a 2 mls per well wash with PBS-Tween-20, 100 μl of 0-Phenylenediamine Dihydrochloride in phosphate-citrate buffer, containing urea hydrogen peroxide, was added to the wells for 7-10 minutes as a colorimetric substrate for the peroxidase. The reaction was terminated by the addition of 100 μl of 2.5N H2SO4 to each well and read using a microplate ELISA reader set at 492 nm. IC50 values for compound inhibition were calculated directly from graphs of optical density (arbitrary units) versus compound concentration following subtraction of blank values.
Target sequence in this assay (P09619 554-1106): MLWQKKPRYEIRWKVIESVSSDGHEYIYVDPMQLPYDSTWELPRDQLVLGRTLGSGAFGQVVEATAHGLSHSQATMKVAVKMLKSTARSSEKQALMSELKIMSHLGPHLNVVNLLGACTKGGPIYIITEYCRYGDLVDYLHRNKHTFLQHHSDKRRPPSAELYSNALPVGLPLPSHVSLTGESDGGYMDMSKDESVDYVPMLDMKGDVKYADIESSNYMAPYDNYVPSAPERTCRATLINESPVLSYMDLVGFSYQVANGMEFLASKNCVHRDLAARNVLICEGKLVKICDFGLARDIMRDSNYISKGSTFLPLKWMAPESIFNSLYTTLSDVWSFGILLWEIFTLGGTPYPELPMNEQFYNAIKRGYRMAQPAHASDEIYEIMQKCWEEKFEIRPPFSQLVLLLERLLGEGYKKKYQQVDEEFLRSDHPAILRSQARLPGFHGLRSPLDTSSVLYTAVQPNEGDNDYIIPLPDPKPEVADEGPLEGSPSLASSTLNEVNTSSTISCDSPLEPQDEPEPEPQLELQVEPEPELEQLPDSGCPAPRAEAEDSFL

[3] = target: T1, VEGFR2; experiment: VEGFR2 Cellular Assay; format: cell-based
Target sequence in this assay (P35968 20-1356, species assumed): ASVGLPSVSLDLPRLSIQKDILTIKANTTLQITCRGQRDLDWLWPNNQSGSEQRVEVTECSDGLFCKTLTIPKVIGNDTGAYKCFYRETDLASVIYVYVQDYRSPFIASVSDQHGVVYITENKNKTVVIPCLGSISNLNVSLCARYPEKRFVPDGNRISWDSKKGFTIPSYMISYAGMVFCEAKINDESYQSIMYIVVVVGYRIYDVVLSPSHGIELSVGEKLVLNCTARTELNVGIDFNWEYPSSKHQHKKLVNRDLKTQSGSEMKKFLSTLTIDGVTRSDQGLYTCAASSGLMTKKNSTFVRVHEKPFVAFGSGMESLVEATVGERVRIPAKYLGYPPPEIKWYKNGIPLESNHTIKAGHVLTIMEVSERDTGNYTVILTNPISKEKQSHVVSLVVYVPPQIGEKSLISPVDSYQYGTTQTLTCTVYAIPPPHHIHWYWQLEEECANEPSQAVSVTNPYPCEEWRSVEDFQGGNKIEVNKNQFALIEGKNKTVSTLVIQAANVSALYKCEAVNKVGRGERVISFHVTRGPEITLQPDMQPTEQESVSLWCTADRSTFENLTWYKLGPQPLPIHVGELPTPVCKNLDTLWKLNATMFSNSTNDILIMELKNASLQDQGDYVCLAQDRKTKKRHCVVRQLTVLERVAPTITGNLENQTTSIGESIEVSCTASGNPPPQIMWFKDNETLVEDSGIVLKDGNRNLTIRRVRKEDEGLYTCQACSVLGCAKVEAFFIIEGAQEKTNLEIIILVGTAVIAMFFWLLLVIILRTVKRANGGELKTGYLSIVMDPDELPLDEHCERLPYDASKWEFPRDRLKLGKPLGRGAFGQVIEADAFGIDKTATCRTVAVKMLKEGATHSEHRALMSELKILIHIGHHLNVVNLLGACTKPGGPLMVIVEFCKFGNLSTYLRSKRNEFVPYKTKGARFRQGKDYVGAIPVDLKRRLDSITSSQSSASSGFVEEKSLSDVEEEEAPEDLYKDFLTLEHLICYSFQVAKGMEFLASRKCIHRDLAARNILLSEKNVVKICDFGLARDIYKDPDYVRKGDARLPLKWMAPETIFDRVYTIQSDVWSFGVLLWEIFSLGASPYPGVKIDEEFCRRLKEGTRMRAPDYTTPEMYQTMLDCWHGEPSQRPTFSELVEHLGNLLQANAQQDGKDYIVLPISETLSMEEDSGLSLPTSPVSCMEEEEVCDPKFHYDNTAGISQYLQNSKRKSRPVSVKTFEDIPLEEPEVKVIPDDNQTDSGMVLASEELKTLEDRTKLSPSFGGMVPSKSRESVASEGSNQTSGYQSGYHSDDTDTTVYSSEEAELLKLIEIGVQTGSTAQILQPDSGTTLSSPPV

[4] = target: T2, PDGFRβ; experiment: PDGFRβ Cellular Assay; format: cell-based
Target sequence in this assay (P09619 33-1106, species assumed): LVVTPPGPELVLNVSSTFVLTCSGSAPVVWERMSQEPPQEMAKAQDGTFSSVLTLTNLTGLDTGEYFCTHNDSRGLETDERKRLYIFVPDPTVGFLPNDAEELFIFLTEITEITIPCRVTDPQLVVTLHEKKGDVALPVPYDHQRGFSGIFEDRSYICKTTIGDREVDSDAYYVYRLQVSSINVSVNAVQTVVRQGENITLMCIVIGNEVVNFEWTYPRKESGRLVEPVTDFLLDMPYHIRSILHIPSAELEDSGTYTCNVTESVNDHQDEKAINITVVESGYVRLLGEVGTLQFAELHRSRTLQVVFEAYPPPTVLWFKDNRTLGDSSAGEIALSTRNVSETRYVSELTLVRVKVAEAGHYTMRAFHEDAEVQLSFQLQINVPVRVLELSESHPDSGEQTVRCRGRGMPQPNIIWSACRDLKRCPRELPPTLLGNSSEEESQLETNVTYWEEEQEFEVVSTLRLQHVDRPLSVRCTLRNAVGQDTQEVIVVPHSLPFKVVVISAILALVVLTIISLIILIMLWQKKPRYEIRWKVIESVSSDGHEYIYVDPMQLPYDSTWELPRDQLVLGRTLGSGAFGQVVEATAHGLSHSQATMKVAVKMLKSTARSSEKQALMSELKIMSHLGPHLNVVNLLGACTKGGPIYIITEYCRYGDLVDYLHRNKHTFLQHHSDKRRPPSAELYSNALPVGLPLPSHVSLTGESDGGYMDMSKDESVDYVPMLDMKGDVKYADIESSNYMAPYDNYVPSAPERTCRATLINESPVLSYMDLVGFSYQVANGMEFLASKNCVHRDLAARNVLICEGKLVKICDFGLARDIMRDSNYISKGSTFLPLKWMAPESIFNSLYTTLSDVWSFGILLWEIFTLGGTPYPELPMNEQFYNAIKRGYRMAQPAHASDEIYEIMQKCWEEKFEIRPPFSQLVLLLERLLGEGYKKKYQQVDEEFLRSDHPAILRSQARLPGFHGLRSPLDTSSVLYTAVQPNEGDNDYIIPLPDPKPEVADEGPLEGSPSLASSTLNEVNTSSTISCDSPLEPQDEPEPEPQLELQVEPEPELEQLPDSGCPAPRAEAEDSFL

IC50 [1] | IC50 [2] | IC50 [3] | IC50 [4] | Structure (SMILES)
7 nM | 11 nM |  |  | COc1cc2ncc3c(c2cc1OC)CCN(c1cccc(C(=O)Nc2cccc(C(C)C)c2)c1)C3 [Example 10, 3-(8,9-dimethoxy-1,4-dihydrobenzo[c]-2,7-naphthyridin-3(2H)-yl)-N-(3-isopropylphenyl)benzamide]
9 nM | 18 nM | 20 nM |  | COc1cc2ncc3c(c2cc1OC)CCN(c1cccc(C(=O)Nc2ccc(C(C)C)cc2)c1)C3 [Example 11, 3-(8,9-dimethoxy-1,4-dihydrobenzo[c]-2,7-naphthyridin-3(2H)-yl)-N-(4-isopropylphenyl)benzamide]
7 nM | 16 nM | 23 nM |  | Cc1cccc(NC(=O)c2cccc(N3CCc4c(cnc5ccccc45)C3)c2)c1 [Example 3, 3-(1,4-dihydrobenzo[c]-2,7-naphthyridin-3(2H)-yl)-N-(3-methylphenyl)benzamide]
8 nM | 16 nM | 71 nM |  | CC(C)c1ccc(NC(=O)c2cccc(N3CCc4c(cnc5ccccc45)C3)c2)cc1 [Example 6, 3-(1,4-dihydrobenzo[c]-2,7-naphthyridin-3(2H)-yl)-N-(4-isopropylphenyl)benzamide]
7 nM | 15 nM | 30 nM | 200 nM | CC(C)c1cccc(NC(=O)c2cccc(N3CCc4c(cnc5ccccc45)C3)c2)c1 [Example 5, 3-(1,4-dihydrobenzo[c]-2,7-naphthyridin-3(2H)-yl)-N-(3-isopropylphenyl)benzamide]
6 nM | 10 nM | 19 nM | 58 nM | CCc1cccc(NC(=O)c2cccc(N3CCc4c(cnc5ccccc45)C3)c2)c1 [Example 4, 3-(1,4-dihydrobenzo[c]-2,7-naphthyridin-3(2H)-yl)-N-(3-ethylphenyl)benzamide]
10 nM | 14 nM | 46 nM | 103 nM | O=C(Nc1cccc(C(F)(F)F)c1)c1cccc(N2CCc3c(cnc4ccccc34)C2)c1 [Example 7, 3-(1,4-dihydrobenzo[c]-2,7-naphthyridin-3(2H)-yl)-N-[3-(trifluoromethyl)phenyl]benzamide]
5 nM | 7 nM | 12 nM |  | CCc1cccc(NC(=O)c2cccc(N3CCc4c(cnc5ccsc45)C3)c2)c1 [Example 14, 3-(8,9-dihydrothieno[3,2-c]-2,7-naphthyridin-7(6H)-yl)-N-(3-ethylphenyl)benzamide]
